Results taken from patent EP1039908B1, “MOLECULAR DISPERSION COMPOSITION WITH ENHANCED BIOAVAILABILITY” (SCHERING CORPORATION, priority 1997, dated 1999).

Test: Bioavailability assay: oral single dose to monkeys, plasma analysed by HPLC-UV, AUC ratio versus amorphous suspension control
Type: in vivo, male cynomolgus monkeys
Conditions: for bioavailability: qualitative statement, solid dosage form development with conventional excipients
Method: The formulation to be tested was administered orally to male cynomolgus monkeys in a single dose (PO, single). The number of monkeys for each test is indicated by the letter "N" followed by an equal sign and a number. Thus, "(N=6)" means the formulation was administered to six monkeys. The total amount of the compound of Formula I administered was 100 or 200 mg given as one capsule or tablet containing 100 or 200 mg each. The administered dose (tablet, capsule or control suspension) was slowly washed down with 10 mL of water. Blood samples were taken at 15, 30 minutes, 1 hour, 2 hours, 4 hours. 6 hours, 8 hours, 12 hours, 24 hours, and 48 hours in heparinized syringes. Plasma for analysis was obtained by centrifugation at 4°C. Plasma samples (one per time point) were split and stored at -20°C until assayed as described below.
The monkeys to be tested were fed two biscuits in the morning on the day of drug administration.
Monkeys that were fasted were not given any food overnight before drug administration and were fed normally after the 4-hour time point after drug administration.
Samples of monkey plasma were collected at selected time intervals. The plasma was analyzed by a high pressure liquid chromatograph (HPLC) procedure with ultraviolet detection. AUC (area under the plasma concentration-time curve, […]) values were calculated using standard procedures to determine the relative bioavailability of the compound in the tested formulations. The larger the AUC value, the greater the bioavailability.
A suspension of the compound of Formula I was used as a control. The control was made by suspending sufficient compound of Formula I in methyl cellulose solution to provide a dose of 30 mg/kg of body weight of monkey. The 0.4 % methyl cellulose solution was made by adding 4 grams of methyl cellulose to one liter of distilled water and heating at about 80°C with stirring for about 1 1/2 hours.
The results of the bioavailability assay are given in terms of percent-relative bioavailability (AUC ratio) compared to amorphous suspension of Compound I in 0.4 methyl cellulose solution.

[1] = suspension, PO single dose, fed monkeys
[2] = suspension, PO single dose, feeding state not printed in the sentence (fasted monkeys implied by b156)

## NC(=O)N1CCC(CC(=O)N2CCC(C3c4ncc(Br)cc4CCc4cc(Cl)cc(Br)c43)CC2)CC1 (single isomer, unassigned; (+)) [crystalline compound I, (+)-4-[4-(8-chloro-3,10-dibromo-6,11-dihydro-5H-benzo [5,6cyclohepta[1,2-b]pyridin-11-yl)-1-piperidinyl]-2-oxoethyl]-1-piperidinecarboxamide]
  bioavailability: very poor
[1]
  relative bioavailability, % of the AUC of suspensions containing the amorphous form of compound I: 3.6%
  relative bioavailability, % of the C max of suspensions containing the amorphous form of compound I: 5.2%
[2]
  relative bioavailability, % of the AUC of the suspensions containing the amorphous form of compound I: 1.3%
  relative bioavailability, % of the Cmax of the suspensions containing the amorphous form of compound I: 2.7%

## NC(=O)N1CCC(CC(=O)N2CCC(C3c4ncc(Br)cc4CCc4cc(Cl)cc(Br)c43)CC2)CC1 (single isomer, unassigned; (+)) [Compound I, (+)-4-[4-(8-chloro-3,10-dibromo-6,11-dihydro-5H-benzo [5,6cyclohepta[1,2-b]pyridin-11-yl)-1-piperidinyl]-2-oxoethyl]-1-piperidinecarboxamide]
Listed as compound of Formula I
  bioavailability: extremely poor
